Patent US20030105158A1, “Hydrates of a neuraminic acid compound and crystalline forms thereof” (SANKYO COMPANY, LIMITED, priority 2000, published 2003)
Counter-ions that a name gives are not always drawn.

Test: Stability test (storage stability, residual amount by HPLC)
Format: physicochemical
Settings: relative to initial content (100%)
Description: In the stability test, the crystals of the compound (I) of the present invention prepared in Example 1 and as reference, the amorphous powder (trifluoroacetate salt) of compound (I) described in Example 35 of the specification of Japanese Patent Application Publication No. Hei 10-330373 were used. These compounds were stored separately at 40° C. in a desiccator with a relative humidity of 75% for 56 days (8 weeks), and the content of these compounds was measured on 14 (2 weeks), 28 (4 weeks) and 56 days (8 weeks) after the initiation of the storage.
Furthermore, these compounds were also stored separately at 60° C. in a desiccator with silica gel for 56 days (8 weeks), and the content of these compounds was measured in the same manner as that described above.
The contents of these compounds were determined quantitatively with high performance liquid chromatography (HPLC), and the amount of the remaining compounds (%) at each sampling point was calculated based on the initial content (100%) determined immediately before the storage.

[1] = stored at 40° C. in a desiccator with a relative humidity of 75%, 14 days
[2] = stored at 40° C. in a desiccator with a relative humidity of 75%, 28 days
[3] = stored at 40° C. in a desiccator with a relative humidity of 75%, 56 days
[4] = stored at 60° C. in a desiccator with silica gel, 14 days
[5] = stored at 60° C. in a desiccator with silica gel, 28 days
[6] = stored at 60° C. in a desiccator with silica gel, 56 days

Row | Compound | Residual amount (amount of the remaining compound) [1] | Residual amount (amount of the remaining compound) [2] | Residual amount (amount of the remaining compound) [3] | Residual amount (amount of the remaining compound) (stored at 40° C. in a desiccator with a relative humidity of 75%, 56 days, listed as amorphous powder (trifluoacetate salt) of compound (I)) | Residual amount (amount of the remaining compound) [4] | Residual amount (amount of the remaining compound) [5] | Residual amount (amount of the remaining compound) [6] | Residual amount (amount of the remaining compound) (stored at 60° C. in a desiccator with silica gel, 56 days, listed as amorphous powder (trifluoacetate salt) of compound (I)) | Residual amount (amount of the remaining compound) (stored at 40° C. in a desiccator with a relative humidity of 75%, 56 days, listed as crystals (hydrated crystals) of compound (I)) | Residual amount (amount of the remaining compound) (stored at 60° C. in a desiccator with silica gel, 56 days, listed as crystals (hydrated crystals) of compound (I))
1 | CCCCCCCC(=O)OC[C@@H](O)[C@@H](OC)[C@@H]1OC(C(=O)O)=C[C@H](NC(=N)N)[C@H]1NC(C)=O [Amorphous powder of compound (I), trifluoroacetate salt of 5-acetamido-4-guanidino-9-O-octanoyl-2,3,4,5-tetradeoxy-7-O-methyl-D-glycero-D-galacto-non-2-enopyranosonic acid] | 38.5% | 27.2% | 10.2% | 10.2% | 95.7% | 92.9% | 89.0% | 89% | – | –
2 | CCCCCCCC(=O)OC[C@@H](O)[C@@H](OC)[C@@H]1OC(C(=O)O)=C[C@H](NC(=N)N)[C@H]1NC(C)=O [Hydrated crystal of compound (I), 5-Acetamido-4-guanidino-9-O-octanoyl-2,3,4,5-tetradeoxy-7-O-methyl-D-glycero-D-galacto-non-2-enopyranosonic Acid Hydrate in Crystalline Form] | 99.8% | 100.2% | 100.3% | – | 99.9% | 100.6% | 99.6% | – | 100% | more than 99%
